From US8067454B2, “Thio-substituted Anthra [1, 2-d] imidazole- 6, 11-dione derivatives, preparation method and application thereof” (National Defense Medical Center, priority 2010, dated 2011)

Columns and labels:
SK-OV-3 = experiment: NCI 60-cell drug screen, Ovarian Cancer SK-OV-3; format: cell-based, human; details: 1.00E−5 Molar
SR = experiment: NCI 60-cell drug screen, Leukemia SR; format: cell-based, human; details: 1.00E−5 Molar
RPMI-8226 = experiment: NCI 60-cell drug screen, Leukemia RPMI-8226; format: cell-based, human; details: 1.00E−5 Molar
MALME-3M = experiment: NCI 60-cell drug screen, Melanoma MALME-3M; format: cell-based, human; details: 1.00E−5 Molar
OVCAR-5 = experiment: NCI 60-cell drug screen, Ovarian Cancer OVCAR-5; format: cell-based, human; details: 1.00E−5 Molar
UACC-62 = experiment: NCI 60-cell drug screen, Melanoma UACC-62; format: cell-based, human; details: 1.00E−5 Molar
SF-268 = experiment: NCI 60-cell drug screen, CNS Cancer SF-268; format: cell-based, human; details: 1.00E−5 Molar
SNB-19 = experiment: NCI 60-cell drug screen, CNS Cancer SNB-19; format: cell-based, human; details: 1.00E−5 Molar
RXF 393 = experiment: NCI 60-cell drug screen, Renal Cancer RXF 393; format: cell-based, human; details: 1.00E−5 Molar
SK-MEL-28 = experiment: NCI 60-cell drug screen, Melanoma SK-MEL-28; format: cell-based, human; details: 1.00E−5 Molar
A498 = experiment: NCI 60-cell drug screen, Renal Cancer A498; format: cell-based, human; details: 1.00E−5 Molar
BT-549 = experiment: NCI 60-cell drug screen, Breast Cancer BT-549; format: cell-based, human; details: 1.00E−5 Molar
HCT-15 = experiment: NCI 60-cell drug screen, Colon Cancer HCT-15; format: cell-based, human; details: 1.00E−5 Molar
NCI-H522 = experiment: NCI 60-cell drug screen, Non-Small Cell Lung Cancer NCI-H522; format: cell-based, human; details: 1.00E−5 Molar
CCRF-CEM = experiment: NCI 60-cell drug screen, Leukemia CCRF-CEM; format: cell-based, human; details: 1.00E−5 Molar
HOP-62 = experiment: NCI 60-cell drug screen, Non-Small Cell Lung Cancer HOP-62; format: cell-based, human; details: 1.00E−5 Molar
SK-MEL-5 = experiment: NCI 60-cell drug screen, Melanoma SK-MEL-5; format: cell-based, human; details: 1.00E−5 Molar
HOP-92 = experiment: NCI 60-cell drug screen, Non-Small Cell Lung Cancer HOP-92; format: cell-based, human; details: 1.00E−5 Molar
SN12C = experiment: NCI 60-cell drug screen, Renal Cancer SN12C; format: cell-based, human; details: 1.00E−5 Molar
HL-60(TB) = experiment: NCI 60-cell drug screen, Leukemia HL-60(TB); format: cell-based, human; details: 1.00E−5 Molar
M14 = experiment: NCI 60-cell drug screen, Melanoma M14; format: cell-based, human; details: 1.00E−5 Molar
MDA-MB-231/ATCC = experiment: NCI 60-cell drug screen, Breast Cancer MDA-MB-231/ATCC; format: cell-based, human; details: 1.00E−5 Molar
LOX IMVI = experiment: NCI 60-cell drug screen, Melanoma LOX IMVI; format: cell-based, human; details: 1.00E−5 Molar
A549/ATCC = experiment: NCI 60-cell drug screen, Non-Small Cell Lung Cancer A549/ATCC; format: cell-based, human; details: 1.00E−5 Molar
SNB-75 = experiment: NCI 60-cell drug screen, CNS Cancer SNB-75; format: cell-based, human; details: 1.00E−5 Molar
SK-MEL-2 = experiment: NCI 60-cell drug screen, Melanoma SK-MEL-2; format: cell-based, human; details: 1.00E−5 Molar
SF-539 = experiment: NCI 60-cell drug screen, CNS Cancer SF-539; format: cell-based, human; details: 1.00E−5 Molar
OVCAR-8 = experiment: NCI 60-cell drug screen, Ovarian Cancer OVCAR-8; format: cell-based, human; details: 1.00E−5 Molar
NCI-H226 = experiment: NCI 60-cell drug screen, Non-Small Cell Lung Cancer NCI-H226; format: cell-based, human; details: 1.00E−5 Molar
SF-295 = experiment: NCI 60-cell drug screen, CNS Cancer SF-295; format: cell-based, human; details: 1.00E−5 Molar
ACHN = experiment: NCI 60-cell drug screen, Renal Cancer ACHN; format: cell-based, human; details: 1.00E−5 Molar
HCC-2998 = experiment: NCI 60-cell drug screen, Colon Cancer HCC-2998; format: cell-based, human; details: 1.00E−5 Molar
GBM8401 = experiment: MTT assay, GBM8401 tumor cell; details: for Cell survival rate (%) GBM8401: concentration 10 μM, tumor cell
OVCAR-4 = experiment: NCI 60-cell drug screen, Ovarian Cancer OVCAR-4; format: cell-based, human; details: 1.00E−5 Molar
786-0 = experiment: NCI 60-cell drug screen, Renal Cancer 786-0; format: cell-based, human; details: 1.00E−5 Molar
T-47D = experiment: NCI 60-cell drug screen, Breast Cancer T-47D; format: cell-based, human; details: 1.00E−5 Molar
NCI/ADR-RES = experiment: NCI 60-cell drug screen, Ovarian Cancer NCI/ADR-RES; format: cell-based, human; details: 1.00E−5 Molar
Description: In brief, cellular protein levels were determined after 48 hours of drug exposure by sulforhodamine B colorimetry. Through the use of a time 0 cell control, the cell growth can be determined for each cell line thus allowing calculations of the 50% growth inhibitory concentration (GI50), the total growth inhibition (TGI), and the 50% lethal concentration (LC50). Comparison to plates not exposed to drug permits determination of concentration and times of exposure conferring 50% net growth inhibition (GI50), TGI, and 50% cell kill (LC50).
From the data analysis it follows that approximately 95% of the actives (potent anticancer drugs) from the 60 cell line screen can be identified. By these criteria, 6 compounds (each with its certification number, refer to Table 2) of the invention were reported that having anticancer activity.
The screening system in United State National Cancer Institute (NCI) consists of 60 kinds of different human cancer cells, which can be used to assay the growth-inhibiting ability or cell toxicity of a compound against various cancer and tumor at a certain concentration.
NCI had selected 6 compounds f1-0, f1-1, f3-1, f1-11, f1-2 and f1-15 as test compounds (Table 2). Among these compounds, compound f1-1 was effective against renal cancer cell strain CAKI-1, and could achieve an inhibition effect on the growth of said cancer cell up to −8.01. Compound f1-11 could achieve inhibiting effects against leukemia cell line CCRF-CEM and RPMI-8226, up to −15.39 and −60.17, respectively. Compound f1-2 was effective against central nervous system cancer cell line SNB-75, and could achieve an effect of inhibiting said cancer cell growth up to −9.55. Compound f1-15 was effective against leukemia (blood cancer) cell line K-562, MOLT-4, and RPMI-8226, and could achieve effects of inhibiting said cancer cells growth up to −31.59, −2.90 and −13.69, respectively. Further, compound f1-15 was effective also against renal cancer cell line CAKI-1, and could achieve an effect of inhibiting said cancer cell growth up to −14.89.

TK-10 = experiment: NCI 60-cell drug screen, Renal Cancer TK-10; format: cell-based, human; details: 1.00E−5 Molar
KM12 = experiment: NCI 60-cell drug screen, Colon Cancer KM12; format: cell-based, human; details: 1.00E−5 Molar

| Structure (SMILES) | Growth Percent, SK-OV-3 (SK-OV-3) [%] | Growth Percent, SR (SR) [%] | Growth Percent, RPMI-8226 (RPMI-8226) [%] | Growth Percent, MALME-3M (MALME-3M) [%] | Growth Percent, OVCAR-5 (OVCAR-5) [%] | Growth Percent, UACC-62 (UACC-62) [%] | Growth Percent, SF-268 (SF-268) [%] | Growth Percent, SNB-19 (SNB-19) [%] | Growth Percent, RXF 393 (RXF 393) [%] | Growth Percent, SK-MEL-28 (SK-MEL-28) [%] | Growth Percent, A498 (A498) [%] | Growth Percent, BT-549 (BT-549) [%] | Growth Percent, HCT-15 (HCT-15) [%] | Growth Percent, NCI-H522 (NCI-H522) [%] | Growth Percent, CCRF-CEM (CCRF-CEM) [%] | Growth Percent, HOP-62 (HOP-62) [%] | Growth Percent, SK-MEL-5 (SK-MEL-5) [%] | Growth Percent, HOP-92 (HOP-92) [%] | Growth Percent, SN12C (SN12C) [%] | Growth Percent, HL-60(TB) (HL-60(TB)) [%] | also measured |
| --- | --- | --- | --- | --- | --- | --- | --- | --- | --- | --- | --- | --- | --- | --- | --- | --- | --- | --- | --- | --- | --- |
| CN(C)CCCSc1nc2ccc3c(c2[nH]1)C(=O)c1ccccc1C3=O [f1-15, 2-(3-(dimethylamino)propylthio)-1H-anthra[1,2-d]imidazole-6,11-dione] | 32.36 | 3.09 | −13.69 | 88.23 | 87.88 | 75.39 | 53.13 | 79.67 | 38.40 | 102.07 | 76.16 | 75.75 | 36.27 | 69.28 | 8.49 | 51.96 | 62.55 | 15.99 | 37.66 | 12.74 | Growth Percent, M14 (M14): 77.32%; Growth Percent, MDA-MB-231/ATCC (MDA-MB-231/ATCC): 56.24%; Growth Percent, LOX IMVI (LOX IMVI): 28.57%; Growth Percent, A549/ATCC (A549/ATCC): 51.59%; Growth Percent, SNB-75 (SNB-75): 50.54%; Growth Percent, SK-MEL-2 (SK-MEL-2): 80.03%; Growth Percent, SF-539 (SF-539): 57.50%; Growth Percent, OVCAR-8 (OVCAR-8): 61.89%; Growth Percent, NCI-H226 (NCI-H226): 74.10%; Growth Percent, SF-295 (SF-295): 76.03%; Growth Percent, ACHN (ACHN): 24.30%; Growth Percent, HCC-2998 (HCC-2998): 72.67%; Cell survival rate (%) GBM8401 (GBM8401): 8 ± 11%; Growth Percent, OVCAR-4 (OVCAR-4): 29.72%; Growth Percent, 786-0 (786-0): 77.63%; Growth Percent, T-47D (T-47D): 45.78%; Growth Percent, NCI/ADR-RES (NCI/ADR-RES): 54.32%; Growth Percent, TK-10 (TK-10): 31.68%; Growth Percent, KM12 (KM12): 20.36% |
| O=C1c2ccccc2C(=O)c2c1ccc1nc3n(c21)CCS3 [f3-1, 2-(2-N-ethylthio)-1H-anthra[1,2-d]imidazole-6,11-dione] | 87.43 | 60.62 | 71.65 | 87.59 | 105.31 | 73.06 | 56.15 | 74.47 | 46.50 | 109.36 | 73.67 | 87.90 | 57.15 | 80.62 | 66.81 | 85.26 | 65.88 | 88.67 | 74.93 | 78.84 | Growth Percent, M14 (M14): 78.50%; Growth Percent, MDA-MB-231/ATCC (MDA-MB-231/ATCC): 94.00%; Growth Percent, LOX IMVI (LOX IMVI): 65.93%; Growth Percent, A549/ATCC (A549/ATCC): 81.15%; Growth Percent, SNB-75 (SNB-75): 95.57%; Growth Percent, SK-MEL-2 (SK-MEL-2): 99.88%; Growth Percent, SF-539 (SF-539): 74.06%; Growth Percent, OVCAR-8 (OVCAR-8): 75.40%; Growth Percent, NCI-H226 (NCI-H226): 80.53%; Growth Percent, SF-295 (SF-295): 78.56%; Growth Percent, ACHN (ACHN): 59.35%; Growth Percent, HCC-2998 (HCC-2998): 94.76%; Cell survival rate (%) GBM8401 (GBM8401): 42 ± 16%; inhibitory effect against tumor cell GBM8401 (GBM8401; survival rate less than 80%): exhibited inhibitory effect against tumor cell GBM8401; Growth Percent, OVCAR-4 (OVCAR-4): 89.29%; Growth Percent, 786-0 (786-0): 92.44%; Growth Percent, T-47D (T-47D): 73.06%; Growth Percent, NCI/ADR-RES (NCI/ADR-RES): 84.08%; Growth Percent, TK-10 (TK-10): 58.78%; Growth Percent, KM12 (KM12): 84.88% |
